Data reported in US20200338045A1, “ISOINDOLINE COMPOSITIONS AND METHODS FOR TREATING NEURODEGENERATIVE DISEASE” (priority 2017, published 2020).
Entries after “also recorded” stand apart in the source; their conditions may differ. Where two headings read alike, the source gives them in different places. Marks after values point to notes of the source that are not given here.

Columns and labels:
[1] = Phase 1 multiple ascending dose (MAD) plasma pharmacokinetics; type: in vivo, human; settings: for Cmax / AUC(0-t) / Tmax / half-life: human, plasma, oral; for AUC(0-t): read-out: AUC0-24h (mean)
Method: In Part B, healthy young subjects in each cohort received the same dose once daily for 14 days after overnight fasting. Cohort dosing started at 280 mg, followed by 560 mg and 840 mg in subsequent cohorts. In each cohort, eight subjects received drug and two received placebo. A fourth cohort of healthy elderly subjects (≥65 years old) received a 560 mg dose vs. placebo daily for 14 days (seven active, two placebo).
In Part A, blood draws for assessment of PK parameters occurred pre-dose and at 15, 30, 45, 60, and 90 minutes post dose as well as at 2, 3, 4, 8, 12, 24, 36, and 48 hours post dose. […] In Part B, blood samples for plasma PK analysis were taken on Day 1 at pre-dose and at 2 hours post-dose, on Day 3 at pre-dose and at 15, 30 and 45 minutes and 1, 2, 3, 4, 8, 12 and 24 hours post-dose, on Days 4, 6, 8 and 10 at pre-dose and at 1.5 hours post-dose and following the final dose on Day 14 at pre-dose and 15, 30 and 45 minutes and 1, 2, 4, 8, 12, 24, 36 and 48 hours post-dose.
This was assessed by analysis of variance (ANOVA) of log-transformed Cmax, AUC0-24, AUC0-48, and/or AUC0-inf, using a model with factors for treatment (fed status or age [young vs. elderly] status) and subject within sequence. Treatment mean differences and 90% confidence intervals of the log transformed PK parameters were back-transformed, to present the geometric least squares means ratios and 90% confidence limits.

[2] = Phase 1 MAD CSF concentration of CT1812; type: in vivo, human; settings: for receptor occupancy associated with CSF CT1812 levels: extrapolated from transgenic mouse brain; for concentration at 1.5 h: human, cerebrospinal fluid, oral, 1.5 hr post dose, Day 7 to Day 9
Description: CT1812 was quantitated in CSF using a validated LC-MS/MS method.

[3] = Phase 1 SAD safety (adverse events, laboratory, ECG); type: in vivo, human
Method: Part A was a single ascending dose cohort study in which healthy, young subjects (less than 65 years old) received one dose of study drug in the morning after an overnight fast. Cohort dosing started at 10 mg and increased to 30 mg, 90 mg, 180 mg, 450 mg, and 1120 mg in subsequent cohorts. Six drug-treated and two placebo-treated subjects were randomized in each cohort. A seventh cohort of six subjects each received a single 90 mg dose of drug 30 min. after a meal. Following completion of all safety assessments and blood draws for PK analyses, subjects were discharged on Day 3.
Safety variables, including incidence of adverse events (AEs), vital signs, clinical laboratory findings, 12-lead electrocardiographs (ECGs), physical examination, and affective and cognitive measures (Part B only), were summarized for all subjects who received study drug.

[4] = Phase 1 MAD cognitive testing in healthy elderly cohort; type: in vivo, human
Method: The Alzheimer's Disease Assessment Scale-Cognition Subscale (ADAS-Cog 13) and a cognitive battery (including the category fluency test, controlled word association test, WMS-R digit span, digit symbol substitution test, and Rey Auditory Verbal Learning Test) were administered to subjects in the elderly cohort at baseline and on Day 14.

[5] = tested on: aged transgenic mouse models of AD; test: Aged transgenic mouse models of AD (cognition, synapses, CSF proteins); type: in vivo
[6] = 560 mg daily, Day 14 (steady state)
[7] = 560 mg daily, day 3, geometric least-squares mean
[8] = 280 mg, 280 mg QD, Day 3, age up to 64 years (n = 8)
[9] = 280 mg, 280 mg QD, Day 14, age up to 64 years (n = 8)
[10] = 560 mg, 560 mg QD, Day 3, age at least 65 years (n = 7)
[11] = 560 mg, 560 mg QD, Day 3, age up to 64 years (n = 8)
[12] = 560 mg, 560 mg QD, Day 14, age at least 65 years (n = 7)
[13] = 560 mg, 560 mg QD, Day 14, age up to 64 years (n = 8)
[14] = 840 mg, 840 mg QD, Day 3, age up to 64 years (n = 7)
[15] = 840 mg, 840 mg QD, Day 14, age up to 64 years (n = 7)

## CC(C)(C)Oc1cc(CCC(C)(C)N2Cc3ccc(S(C)(=O)=O)cc3C2)ccc1O [CT1812]
[1]; 280 mg QD, Day 14, age up to 64 years (n = 8), unit assumed
  CLss/F (mean): 387 L/h
[1]; 560 mg QD, Day 14, age at least 65 years, n = 7
  CLss/F (mean): 169^‡‡
[1]; 560 mg QD, Day 14, age up to 64 years (n = 8), unit assumed
  CLss/F (mean): 296 L/h
[1]; [6]
  AUC0-24h, aged cohort vs younger subjects: 1.5 times
  Cmax, aged cohort vs younger subjects: 1.6 times
[1]; [7]
  AUC0-24h, aged cohort vs subjects under 64 years: ~1.34 times
  Cmax, aged cohort vs subjects under 64 years: approximately 1.7 times
[1]; 840 mg QD, Day 14, age up to 64 years, n = 7
  CLss/F (mean): 212^‡‡
[1]; MAD 280 to 840 mg
  Cmax and AUC / plasma concentration vs dose: slightly greater than dose proportionally
[1]; Q.D. over 14 days
  accumulation with repeat dosing: minimal accumulation
[1]; [8]
  Cmax: 238 ng/mL
  AUC(0-t): 851 ng·h/mL
[1]; 280 mg, 280 mg QD, Day 3, age up to 64 years (n = 8), read-out: Tmax (median)
  Tmax: 1.5 h
[1]; 280 mg, 280 mg QD, Day 3, age up to 64 years, n = 6, over max 24 hours post dose, read-out: t1/2 (mean) (converted)
  half-life: 8.97 h
[1]; [9]
  Cmax: 431 ng/mL
  AUC(0-t): 1060 ng·h/mL
[1]; 280 mg, 280 mg QD, Day 14, age up to 64 years (n = 8), read-out: Tmax (median)
  Tmax: 0.88 h
[1]; 280 mg, 280 mg QD, Day 14, age up to 64 years (n = 8), read-out: t1/2 (mean) (converted)
  half-life: 12 h
[1]; [10]
  Cmax: 567 ng/mL
  AUC(0-t): 3330 ng·h/mL
[1]; 560 mg, 560 mg QD, Day 3, age at least 65 years (n = 7), read-out: Tmax (median)
  Tmax: 2 h
[1]; 560 mg, 560 mg QD, Day 3, age at least 65 years, n = 4, over max 24 hours post dose, read-out: t1/2 (mean) (converted)
  half-life: 8.83 h
[1]; [11]
  Cmax: 407 ng/mL
  AUC(0-t): 1940 ng·h/mL
[1]; 560 mg, 560 mg QD, Day 3, age up to 64 years (n = 8), read-out: Tmax (median)
  Tmax: 2 h
[1]; 560 mg, 560 mg QD, Day 3, age up to 64 years, n = 2, over max 24 hours post dose, read-out: t1/2 (mean) (converted)
  half-life: 8.56 h
[1]; [12]
  Cmax: 853 ng/mL
  AUC(0-t): 4450 ng·h/mL
[1]; 560 mg, 560 mg QD, Day 14, age at least 65 years (n = 7), read-out: Tmax (median)
  Tmax: 1 h
[1]; 560 mg, 560 mg QD, Day 14, age at least 65 years (n = 7), read-out: t1/2 (mean) (converted)
  half-life: 12.8 h
[1]; [13]
  Cmax: 651 ng/mL
  AUC(0-t): 2810 ng·h/mL
[1]; 560 mg, 560 mg QD, Day 14, age up to 64 years (n = 8), read-out: Tmax (median)
  Tmax: 2 h
[1]; 560 mg, 560 mg QD, Day 14, age up to 64 years (n = 8), read-out: t1/2 (mean) (converted)
  half-life: 12.3 h
[1]; [14]
  Cmax: 813 ng/mL
  AUC(0-t): 3610 ng·h/mL
[1]; 840 mg, 840 mg QD, Day 3, age up to 64 years (n = 7), read-out: Tmax (median)
  Tmax: 2 h
[1]; 840 mg, 840 mg QD, Day 3, age up to 64 years, n = 5, over max 24 hours post dose, read-out: t1/2 (mean) (converted)
  half-life: 9.39 h
[1]; [15]
  Cmax: 991 ng/mL
  AUC(0-t): 4990 ng·h/mL
[1]; 840 mg, 840 mg QD, Day 14, age up to 64 years (n = 7), read-out: Tmax (median)
  Tmax: 2 h
[1]; 840 mg, 840 mg QD, Day 14, age up to 64 years, n = 6, read-out: t1/2 (mean) (converted)
  half-life: 8.93 h
[1]; MAD, read-out: average terminal half-life at steady state (converted)
  half-life: ~12 h
[1]; part B (MAD), 280-840 mg, read-out: Tmax in plasma, range over doses
  Tmax: 0.88 to 2 h
[2]; 560 mg dose
  receptor occupancy associated with CSF CT1812 levels: 95%
[2]; 560 mg-840 mg dose range, 1.5 hr post-dose, equivalent mouse brain concentration
  projected receptor occupancy at average CSF concentrations: 97-98%
[2]; 840 mg dose
  receptor occupancy associated with CSF CT1812 levels: 98%
[2]; MAD 560 and 840 mg, at peak plasma concentrations
  CSF CT1812 concentration vs dose: dose-dependent manner; also recorded: dose-dependent increases
[2]; from CT1812 levels in CSF
  blood-brain barrier penetration in humans: penetrates the blood-brain barrier
[2]; 560 mg daily
  concentration at 1.5 h: 8 ng/mL
[2]; 840 mg daily
  concentration at 1.5 h: 23.3 ng/mL
[3]; SAD
  ECG parameters or changes: No ECG parameters or changes were assessed as clinically significant
  deaths or serious adverse events: no deaths or other serious adverse events
[3]; SAD Total Active (n = 42)
  All TEAEs, number of subjects: 18
  Headache, % of subjects: (14%)
  Headache, number of subjects: 6
  Nausea, % of subjects: (14%)
  Nausea, number of subjects: 6
[3]; single 10 mg fasted (n = 6)
  All TEAEs, % of subjects: (33%)
  All TEAEs, number of subjects: 2
  Headache, % of subjects: (50%)
  Headache, number of subjects: 3
  Nausea, % of subjects: (17%)
  Nausea, number of subjects: 1
[3]; single 30 mg fasted (n = 6)
  All TEAEs, % of subjects: (67%)
  All TEAEs, number of subjects: 4
[3]; single 90 mg fed (n = 6)
  All TEAEs, % of subjects: (33%)
  All TEAEs, number of subjects: 2
  Headache, % of subjects: (17%)
  Headache, number of subjects: 1
[3]; single 180 mg fasted (n = 6)
  All TEAEs, % of subjects: (33%)
  All TEAEs, number of subjects: 2
[3]; single 450 mg fasted (n = 6)
  All TEAEs, % of subjects: (67%)
  All TEAEs, number of subjects: 4
  Headache, % of subjects: (17%)
  Headache, number of subjects: 1
  Nausea, % of subjects: (33%)
  Nausea, number of subjects: 2
[3]; single 1120 mg fasted (n = 6)
  All TEAEs, % of subjects: (67%)
  All TEAEs, number of subjects: 4
  Headache, % of subjects: (17%)
  Headache, number of subjects: 1
  Nausea, % of subjects: (50%)
  Nausea, number of subjects: 3
[3]; single dose 10 mg to 1120 mg, healthy young subjects
  tolerability, single dose: safe and well tolerated
[4]; healthy elderly cohort, 560 mg, day zero vs day 14
  cognitive scores before vs after treatment: similar
[4]; healthy elderly, 560 mg for 14 days (N = 7), Day 14, Day 0: 9.6 (4.2)
  COWAT (Trial 2), Mean (SD): 10.6 (5.1)
[4]; healthy elderly, 560 mg for 14 days (N = 7), Day 14, Day 0: 11.3 (5.7)
  COWAT (Trial 1), Mean (SD): 12.6 (4.5)
[4]; healthy elderly, 560 mg for 14 days (N = 7), Day 14, Day 0: 14.6 (5.7)
  COWAT (Trial 3), Mean (SD): 15.1 (3.7)
[4]; healthy elderly, 560 mg for 14 days (N = 7), Day 14, Day 0: 17.3 (3.9)
  RAVLT, Mean (SD): 18.7 (3.1)
[4]; healthy elderly, 560 mg for 14 days (N = 7), Day 14, Day 0: 17.9 (3.3)
  WMS-R (Digit Span), Mean (SD): 17.9 (3.3)
[4]; healthy elderly, 560 mg for 14 days (N = 7), Day 14, Day 0: 18.4 (5.5)
  CFT, Mean (SD): 19.7 (2.4)
[4]; healthy elderly, 560 mg for 14 days (N = 7), Day 14, Day 0: 78.3 (11.0)
  DSST, Mean (SD): 80 (9.6)
[5]; aged transgenic mouse models of AD
  cognitive performance / memory: restoring normal cognitive performance; also recorded: restores cognitive function; also recorded: restores memory to normal
[5]; chronic treatment of aged transgenic mice, efficacious doses, LC/MSMS
  inflammatory protein expression in CSF: significantly reduces
